These results are taken from US20240043880A1, “IMPROVED METHODS FOR PRODUCTION, RECOVERY AND SECRETION OF HYDROPHOBIC COMPOUNDS IN A FERMENTATION” (BioPhero ApS, priority 2019, published 2024).

One assay deals with Helicoverpa armigera. Particulars: H. armigera, cited from earlier work.
Another assay deals with Chilo suppressalis. The note with it: C. suppressalis, cited from earlier work.
For assay [1], the system named is Y. lipolytica strain ST8881. It is filed as cell-based, Yarrowia lipolytica. Particulars: antifoaming agent 3 v/v %. From the text:
Strain ST8327 has been engineered to produce (Z)11-hexadecen-1-ol. […] The strain expresses the Δ11 desaturase from Amyelois transitella (SEQ ID NO: 1) and fatty acyl-CoA reductase from Helicoverpa armigera (SEQ ID NO: 5). Strain ST8762 has been engineered to produce (Z)9-tetradecen-1-ol. The strain expresses the Δ9 desaturase from Drosophila melanogaster (SEQ ID NO: 16) and fatty acyl-CoA reductase from Helicoverpa armigera (SEQ ID NO: 5). […] A strain was inoculated from a YPD agar plate (10 g/L yeast extract, 10 g/L peptone, 20 g/L glucose, 15 g/L agar agar) to an initial OD600 of 0.1-0.2 into 2.5 mL YPG medium (10 g/L yeast extract, 10 g/L peptone, 40 g/L glycerol) in 24 well-plate (EnzyScreen). The plate was incubated at 28° C. and 300 rpm for 22 hours. […] At the same time, 95 μL of Antifoam A (ethoxylated and propoxylated C16-18 alcohols, CAS No. 68002-96-0), corresponding to […] (i.e. above the recommended dose of 0.1 v/v % for foam management and above the cloud concentration), was added. The plate was incubated at 28° C. and 300 rpm for 28 hours. Each experiment was performed in biological triplicates.
The intracellular and extracellular concentrations of fatty alcohols were assessed as follows. 1000 μL of culture broth was transferred to a 4 mL gas-tight glass extraction vial. The sample was centrifuged at 3,500 g for 5 min at room temperature. The supernatant was transferred into a new glass vial with 990 μL of hexane and 10 μL of internal standard (IS) solution (20 mg/L of methyl Z10-heptadecanoate in ethyl acetate). The vial was vortexed for 10 s and centrifuged as before. 250 μL of the upper hexane phase was transferred to a GC vial for GC-MS analysis of the extracellular fatty alcohol concentration. The pellet remaining after the removal of the supernatant from the centrifuged culture broth was resuspended in 990 μL of solvent mixture (EtOAc and EtOH) and 10 μL of IS solution as above. The sample was incubated for 1 h with periodic mixing. 300 μL water was added and the vials were centrifuged at 3,500 g for 5 min at room temperature. 250 μL of the upper organic phase was transferred to a GC vial for GC-MS analysis of the intracellular fatty alcohols. GC-MS analyses were performed on an Agilent 7820A GC coupled to a mass selective detector Agilent 5977B. The GC was equipped with an DB Fatwax column (30 m×0.25 mm×0.25 μm), and helium was used as carrier gas. The MS was operated in electron impact mode (70 eV), scanning between m/z 30 and 400, and the injector was configured in split mode 20:1 at 220° C. Oven temperature was set to 80° C. for 1 min, then increased at a rate of 20° C./min to 210° C., followed by a hold at 210° C. for 7 min, and then increased at a rate of 20° C./min to 230° C. Compounds were identified by comparison of retention times and mass spectra of the reference compounds. Compounds were quantified by the ion 55.1 m/z. Data were analysed by the Agilent Masshunter software. The concentrations of fatty alcohols were calculated based on standard calibration curves prepared with reference standards.
Here we investigated the effect of different antifoaming oils and agents on the recovery of fatty alcohols in a separate phase. The experiments were performed with engineered Y. lipolytica strain ST8881 following the procedures as in Example 1.
The control experiment was performed without addition of any antifoaming oil or agent.

With `CCCCCCCCCCCCCCCC=O` [16:Ald, n-Hexadecanal], the Behavioral response result is “neutral” with Helicoverpa armigera and “does not elicit a behavioral response” with Chilo suppressalis.

Take `CCCCCCCCCCCC` [Dodecane]: in assay [1], the “% secretion of Z11.hexadecen-1-ol” value is on record as 0 (0%), the “Extracellular concentration of Z11.hexadecen-1-ol” value is 0 (0%) and the “Total concentration of Z11-hexadecen-1-ol” value was 720.0 ± 95.6 mg/L.

Consider `CCCCCCCC/C=C\CCCCCCCC(=O)O` [Oleic acid], for which, in assay [1], the “% secretion of Z11.hexadecen-1-ol” value is reported as 0 (0%), the “Extracellular concentration of Z11.hexadecen-1-ol” value is recorded as 0 (0%) and the “Total concentration of Z11-hexadecen-1-ol” value came out at 1008.4 ± 648.6 mg/L.

For `CCCCCC/C=C\CCCCCCCC=O` [Z9-16:Ald], in the assay with Helicoverpa armigera (Kehat et al., 1990), the “Effect on the activity of an artificial pheromone formulation when added to Z11-16:Ald” value is “enhance the activity”. Moreover, the “Interaction with the two primary pheromone components Z11-16:Ald and Z13-18:Ald” value with Chilo suppressalis (Tatsuki et al.) is reported as “synergistic”.
